Values after ≈ are worked out from the molar mass of the structure shown. Starred links: 1 amine or outer side, 2 acyl side, 3 side chain; linkers in the order of their positions; H or OH if unused. Positions of bridges follow the written chain, without caps; N, C: chain ends. Non-standard residues stand in square brackets, D forms with d. Residues, ends and D or L forms follow the SMILES beside them. X1 = CC1CC(C2=NC(C(=O)[*:2])CS2)N1[*:1]; NMeV = CN[CH](C(=O)O)C(C)C; X2 = O=C(C(O)CO[*:2])[*:1]; Pip = O=C(O)[CH]1CCCCN1; Dhb = C/C=C(\N)C(=O)O

Data set [1] has as its system type I IFN responses (IFN-inducible Mx2-promoter, tdTomato). The data set can be described thus: Mx2Tom reporter cells, tdTomato expression by flow cytometry. The class given is cell-based. The settings on record: IFN-β plus different concentrations, overnight incubation. The procedure:
This allowed assessment of the Vioprolide A effect on the IFN system on a single cell level. Thus, cells were stimulated with IFN-β as wells as different concentrations of Vioprolide A and expression of tdTomato was analyzed after overnight incubation using flow cytometry.
Background: In flow cytometry, cells or beads pass a laser one at a time.

For data set [2] the following is noted: according to a publication; cited from earlier work.
The subject of data set [3] is type I IFN response (IFN-β induced Mx2-driven luciferase activity). Nature of the data set: Type I IFN reporter cell assay (Mx2-driven Firefly luciferase, NIH3T3 Mx2-Luc2). The class given is cell-based, murine. The procedure: In FIG. 6A the type I IFN reporter cells were pretreated with different concentrations of Vioprolide A (0, 5, 10, 30, 50 or 100 ng/ml). After pre-treatment for two hours cells were stimulated with IFN-β (500 U/ml) in the continuous presence of the indicated Vioprolide concentrations. In FIG. 6B type I IFN reporter cells were pretreated with IFN-β ([…]). After four hours cells were additionally stimulated with different concentrations of Vioprolide A (0, 5, 10, 30, 50 or 100 ng/ml). Untreated cells were used as control (Crtl). Luciferase activity was measured after 24 hours and relative luminescent units (RLU) were calculated to one μg of protein detected by Bradford assay.
For measuring type I IFNs BAC-based reporter constructs have been used. BACs harbouring the cDNA of Firefly luciferase 2 (luc2) under control of the Mx2 promoter were engineered, NIH3T3 Mx2-Luc2. The change from Luc+ (pGL3 basic, Promega) used in the before mentioned reporter constructs to the next generation luciferase (pGL4.10, Promega) was performed, as Luc2 theoretically promised to achieve higher signal intensities and therefore might also be more practicable for further in vivo imaging experiments. This newly generated BAC was electroporated into the murine fibroblast cell line NIH/3T3.
After overnight incubation luciferase activity was determined and calculated according to protein levels to scale with the antiproliferative effects of Vioprolide. […] The median inhibitory concentration (IC50), which reduces IFN-induced responses by 50%, was calculated to be 10 ng/ml of Vioprolide A.
In FIG. 6A type I IFN reporter cells, NIH3T3 Mx2-Luc2 were pretreated with different concentrations of Vioprolide A (−, 5, 10, 30, 50 or 100 ng/ml). After pre-treatment for two hours cells were stimulated with IFN-β (500 U/ml) in the continuous presence of the indicated Vioprolide concentrations. In FIG. […] type I IFN reporter cells were pretreated with IFN-β (500 U/ml). After four hours cells were additionally stimulated with different concentrations of Vioprolide A (−, 5, 10, 30, 50 or 100 ng/ml). Untreated cells were used as control (CM). Luciferase activity was measured after 24 hours and relative luminescent units (RLU) were calculated to one μg of protein detected by Bradford assay.
Next, the effect of Vioprolide A on previously activated type I IFN signalling was addressed. This was performed to exclude a direct inhibitory interaction of this natural compound with IFN molecules or their cognate receptors type I IFN reporter cells were therefore stimulated with IFN-β four hours prior to treatment with different Vioprolide A concentrations. After overnight incubation cells were harvested and luciferase activity was assayed. […] A first significant reduction of luciferase activity (for p<0.05) could be visualized with 30 ng/ml Vioprolide A (FIG. 6B). The IC50 was identified to 20 ng/ml.

For data set [4], the system named is type I interferon response (Mx2-promoter controlled luciferase). The data set can be described thus: Bioluminescent imaging of type I IFN reporter mice (BAC Mx2Luc2). It is filed as in vivo. The settings on record: 20 μg i.v., IFN-β i.v. after 1 h. The method, then:
In FIG. 8 the inhibitory response of Vioprolide A on the type I interferon response is shown. In FIG. 8A a female type I IFN reporter mice, which contain the IFN-responsive BAC Mx2Luc2, were i.v. treated with 20 μg of Vioprolide A (in 100% EtOH). First image was taken immediately after Vioprolide A treatment. After 1 h mice were i.v. injected with 5.000 U/ml IFN-β (PBL). Three hours after IFN-treatment second series of images were taken. For control one animal was only treated with Vioprolide A or with IFN, respectively. Bioluminescent images were obtained using the IVIS200 System (Xenogen). […] Rainbow scales indicate number of photons measured per second×cm2×sr.
For the following in vivo experiment 20 μg of Vioprolide A were employed. This amount was calculated according to a publication appointing the lethal dose of this compound to be 3 mg/kg and moreover to concentrations used for anti-tumour studies Thus, type I IFN reporter mice were intravenously injected with Vioprolide A and subjected for bioluminescent imaging. After one hour mice were additionally treated with IFN-β and responses were assessed after a three-hour incubation time. […]
In FIG. 8A female type I IFN reporter mice, which contain the IFN-responsive BAC Mx2Luc2, were i.v. treated with 20 μg of Vioprolide A (in 100% EtOH). […] Rainbow scales indicate number of photons measured per second×cm2×sr.

The test system of data set [5] is type II IFN response (IFN-γ, Gbp2 promoter). The data set can be described thus: Type II IFN reporter cell assay (Gbp2-driven Renilla luciferase, NIH3T3 Gbp2-RLuc). The settings on record: 500 U/ml IFN-γ, Vioprolide A one hour later, all concentrations tested (50, 100, 200 ng/ml); not related to protein. The class given is cell-based, murine. The method, then:
IFN-γ reporter NIH/3T3 cells harbouring the recombinant BAC Gbp2RLuc were seeded on 96-well-plates and treated with IFN-γ ([…]) or left untreated (“−”). After one hour cells were exposed to different concentrations of Vioprolide A (−, 50, 100 or 200 ng/ml) and incubated overnight. Gbp2-driven Renilla luciferase expression was determined by luciferase assay. Results are expressed as fold induction of basal expression (n=3).
In addition, Vioprolide A might also modulate type II IFN responses. […] Hereby, expression of Renilla luciferase is driven by the type II IFN responsive promoter of the Gbp2 gene obtained using a BAC containing the GBP2 gene locus and following the method described above. In this experiment, reporter cells, NIH3T3 Gbp2-RLuc were seeded on […], stimulated with 500 U/ml IFN-γ and one hour later incubated with different concentrations of Vioprolide A. Afterwards the IFN response was analysed by quantifying Renilla luciferase activity. Since this assay was performed on a microtiter format, quantification of protein amounts by former used BCA as well as Bradford assay was impossible. […] Thus, evidence for a negative influence of Vioprolide A on both type I and type II IFN responses was provided.

Data set [6] concerns vesicular stomatitis virus (VSV). The class given is cell-based.

As for `C/C=C1\NC(=O)C2CSC(=N2)C2CC(C)N2C(=O)C(CC(C)C)NC(=O)C(C)NC(=O)C(O)COC(=O)C(C(C)C)N(C)C(=O)C(C(C)O)NC(=O)C2CCCCN2C1=O` (stereo not shown) [Vioprolide A] (AL[X1][Dhb][Pip]T[NMeV]; linker N-C via X2; configuration not given here), the “effect on tdTomato reporter expression” value in data set [1] is reported as “dose-dependent inhibitory effect”. Further, the lethal dose in data set [2] is 3 mg/kg. In addition, in data set [3] (100 ng/ml, IFN-β four hours prior to treatment), the reporter expression result is “significant reduction of reporter expression”. Also, the “Mx2-driven luciferase activity at strongest inhibition” value in data set [3] (100 ng/ml, pre-treatment 2 h before IFN-β, FIG. 6A) is listed as “dramatic decrease of Mx2-driven luciferase activity down to background levels”. Also, in data set [3] (IFN-β (500 U/ml) four hours prior to Vioprolide A, FIG. 6B), the “IC50 on previously activated type I IFN signalling” value came to 0.02 µg/mL (≈ 0.0232 µM). The “concentration giving first significant reduction of luciferase activity (p<0.05)” value in data set [3] (IFN-β four hours prior to Vioprolide A, FIG. 6B) was 30 ng/mL. For the same molecule, the “median inhibitory concentration (IC50), which reduces IFN-induced responses by 50%” value in data set [3] (Vioprolide A two hours prior to IFN-β (500 U/ml), luciferase related to protein, FIG. 6A) turned out to be 0.01 µg/mL. Further, the “impact on IFN responses in vitro compared within the class of Vioprolides” value in data set [3] (cell culture systems, screening) is “highest impact on IFN responses in vitro”. The “effect on the type I IFN response” value in data set [3] (pre-treatment 2 h before IFN-β, all concentrations tested (5-100 ng/ml)) was “inhibitory effect”. In data set [4] (3 h after IFN, average radiance, FIG. 8B), the “light emission after IFN treatment relative to combined IFN and Vioprolide stimulation” value is listed as “ten times higher”. In addition, the “luciferase activity by optical imaging versus animal given IFN-β alone” value in data set [4] (imaging 3 h after IFN, one mouse per stimulation) is “less luciferase activity”. In addition, the “response to type II IFN (Renilla luciferase activity)” value in data set [5] is given as “decreased response to type II IFN”. The “effect on IFN-mediated antiviral activities” value in data set [6] is listed as “inhibitory effect on IFN-mediated antiviral activities”.

The values are drawn from patent publication US20110173707A1 (priority 2008, published 2011).
